Test results: patent US9155774B2, “Scaffold-kinase interaction blockades and uses thereof in treating cancer” (THE BOARD OF TRUSTEES OF THE LELAND STANFORD JUNIOR …, priority 2011, dated 2015)
“Also recorded” adds a separate entry of the source.

Assays:
[1] = tested on: normal human organotypic tissue expressing LacZ; assay: Normal organotypic human tissue homeostasis; settings: drug daily, same concentrations as in neoplastic tissue (UO126 5 μM)
Description: (§5) Human Tissue Model System. Dermis can be ordered from National Disease Research Interchange (NDRI) and New York Firefighter Skin Bank. Tissue is inspected for overall thickness as well as continuity across the spectrum. Pieces with less hair follicles are preferable. This tissue is cultures in a mixture of antibiotics and antimyotics for a period of 10-14 days. Subsequently, the epidermis is peeled off. The devitalized dermis is then ready to be repopulated with 2-4×10^5 neonatal human fibroblasts by low speed centrifugation for 1 hour. Tissue is raised to the air-liquid interface and seeded with 0.5-1×10^6 genetically modified human keratinocytes to stimulate differentiation and stratification (Ridky, T. W., et al. Invasive three-dimensional organotypic neoplasia from multiple normal human epithelia. Nat Med 16, 1450-1456 (2010); PrunieRAS, M., et al. Methods for cultivation of keratinocytes with an air-liquid interface. J Invest Dermatol 81, 28-33 (1983)). Tissue was treated with drug/peptide as indicated by application directly into culture media daily. Tissue was grown for five to ten days total. For immunofluorescence analysis, tissue was placed in OCT. For histological analysis, tissue was fixed in 10% formalin (Sigma-Aldrich) and embedded in paraffin.
(§6) Immunofluorescence and Invasion index. OCT embedded tissue samples were cut into 7 um sections then fixed and permeabilized by incubation in ice-cold methanol or acetone for 10 minutes at −20° C. followed by blocking in 10% horse serum in PBS for 1 hour. Tissue sections were then incubated with primary antibodies, followed by Alexafluor-488 conjugated or Alexafluor-555 conjugated, goat anti-mouse or goat anti-rabbit secondary antibodies (Molecular Probes). The following antibodies were used: rabbit anti-keratin-5 (1:4000, Covance, PRB-160P), mouse anti-collagen VII (1:200, Millipore, MAB2500), anti-mouse Keratin 10 (1:200, Neomarkers, MS611P), anti-mouse Transglutaminase (1:100, Biomedical Technology, BT-621), anti-rabbit Loricrin (1:200, Covance, PRB-145P), and anti-rabbit Ki67 (1:100, Neomarkers, SP6). Tissue was counterstained with Hoescht to visualize cell nuclei. Microscopy was performed on an Olympus FV1000 scanning laser confocal microscope. For each sample, 30 sequential Z-sections were taken in 3 channels (DAPI—405/450 nm excitation/emission, FITC-488/512 ex/em and TRITC-540/570 ex/em) allowing for subsequent three-dimensional reconstruction analysis. […] Relative invasion index was quantified as number of keratin-positive epithelial cells below the collagen-positive basement membrane zone (BMZ) measured 10 times across 3 independent 20× fields of view. Ki67 quantification was quantified as number of Ki67-positive epithelial cells measured 10 times across 3 independent 20× fields of view. […]

[2] = tested on: H-RAS^G12V/IκBαM organotypic human tissue; assay: Organotypic human tissue model of RAS-driven neoplastic invasion; assay type: cell-based
Protocol: (§1) Retroviral Transduction. […] Alternatively transformation was achieved through combined infection with an LTR-driven retrovirus expressing oncogenic ER:H-RAS and a separate LTR-driven retrovirus expressing cyclin-dependent kinase 4 (CDK4). Polybrene was added to a final concentration of 5 ug/mL to cell media during infection. Infections were performed at 37° C. with low-speed centrifugation for 1 hour. Expression of these viral constructs was verified in vitro. […] As a control for a RAS-IκBα bicistronic virus (IIR), we also infected a separate pool of keratinocytes with a LacZ control virus. For dual ER:H-RAS and CDK4 infected cells, forty-eight hours after infection cultures were daily treated with either […] 40 hydroxytamoxifen or an equal volume of ethanol (vehicle).
(§2) Human Tissue Model System. […] Pieces with less hair follicles are preferable. […] Subsequently, the epidermis is peeled off. […] Tissue was grown for five to ten days total. For immunofluorescence analysis, tissue was placed in OCT.
(§3) Immunofluorescence and Invasion index. […] Tissue was counterstained with Hoescht to visualize cell nuclei.
Hum Gene Ther 8, 1659-1665 (1997)).

IQGAP1 = assay: qRT-PCR validation of IQGAP1 knockdown; assay type: cell-based, human; settings: two, four and six days post-nucleofection
Description: siRNA-mediated knockdown. For each ERK/MAPK scaffold, siRNA oligos were designed and synthesized by Dharmacon. Subsequently, 1×10^6 early-passage neonatal keratinocytes were electroporated with 2 nMol of each siRNA oligo or 1 nMol each of two siRNA oligos using Amaxa nucleofection reagents and according to the manufacturer's protocol. A nonfunctional siRNA served as a negative control and ERK1/2 siRNA served as positive controls. The following siRNA oligos were used for this study (sense/antisense):
shRNA-mediated knockdown. The vectors for pGIPZ shRNA targeting IQGAP1 were designed and purchased through Open Biosystems catalog number V2LHS-86779 for shIQGAP1.E, V2LHS-86781 for shIQGAP1.F, and V2LHS-259635 for shIQGAP1.G. Cells were transduced as above with 1000× puromycin (1 mg/mL) selection applied daily. Transduction of cells was visualized under a fluorescent microscope
qRT-PCR Expression Analysis. At indicated time points, RNA was harvested from cells via treatment with TRIZOL by the standard Invitrogen protocol. Relative mRNA expression was determined by qRT-PCR analysis using a Stratagene Mx3000P thermocycler and Brilliant II SYBR green QRT-PCR 1-step master mix reagents. Primer concentration was 200 nM with 100 ng RNA. Samples were run in triplicate and normalized to levels of GAPDH mRNA for each reaction. The following primers were used for this study: […]

[3] = tested on: normal human organotypic tissue expressing LacZ
Description: as §5, §6

[4] = tested on: SK-MeI-28 melanoma xenograft tumors; assay: Systemic delivery of WW peptide in vivo by osmotic pump; settings: subcutaneous osmotic pump, 19 mg/kg/day for 14 days
Protocol: (A) Established xenograft tumors derived from BRAFV600E mutant SK-MeI-28 melanoma cancer cells were subcutaneously implanted with osmotic pumps (Alzet model 2002) (indicated by black arrows) which released 19 mg/kg/day of R8-myc-tagged Scrambled or WW peptide for 14 days (indicated by hash bars) with tumor growth quantified by mean average radiance (n=3 mice per group). […] (D) Representative data of tumor growth as quantified by tumor volume±SEM from d28 and d43.
(§4) Systemic delivery of WW peptide in vivo. 0.5×10^6 luciferase-expressing SK-MeI-28 were injected into the subcutaneous space of hairless immunodeficient 6-8 week old SCID mice (SHO stock, Charles Rovers). Mouse xenografts were allowed to grow untreated for 1 week. Subsequently, tumors were measured and randomized two groups of similar tumor size. Each group was subcutaneously implanted with osmotic pumps (Alzet, model 2002) releasing 0.5 uL of R8-myc-tagged scrambled or WW peptide per hour for 14 days.
as §4, with “To test the efficacy of systemic” for “Systemic”, “vivo,” for “vivo.”, “of” for “of R8-myc-tagged”

[5] = tested on: IQGAP1-Erk1/2 interaction; assay: Immunoprecipitation of endogenous IQGAP1 protein and associated Erk; assay type: cell-based, human; settings: 10 μM peptide daily for six days, SK-MeI-28 cells
Protocol: (A) Immunoprecipitation of endogenous IQGAP1 protein and associated Erk from primary human cells (normal) or BRAFV600E mutant SK-MeI-28 melanoma cells (cancer) following daily treatment with 10 μM R8-myc-tagged SCR or WW peptide for six days. (B) Relative Erk levels as a function of immunoprecipitated IQGAP1 as in (d). n=3, ±SD.
Immunoprecipitation of endogenous IQGAP1 protein and associated Erk. Cells were cross-linked with 1 mL of 20 mM DSP (Thermo Scientific) for 1 hour at 4° C. and the reaction was stopped with washes in 50 mM Tris. Cells were lysed in 20 mM Tris, 150 mM NaCl, 0.2% NP40, 10% Glycerol with 0.5 mM dTT and protease/phosphatase inhibitors added directly before use (buffer 1) for 1 hour at 4° C., but not pelleted. 1 mg lysate in 500 uL was combined with 5 ug of mouse anti-IQGAP1 antibody (Millipore 05-504) in buffer 1 and rocked overnight at 4° C. 30 uL of protein G sepharose 4 fast flow (GE Healthcare) were washed in buffer 1 and combined with lysate for 1 hour at 4° C. Supernatent was removed to check for immunodepletion. Beads were washed 3 times in 20 mM Tris, 150 mM NaCl, 1% Triton X-100 with protease/phosphatase inhibitors added directly before use (buffer 2). Immunoprecipitate was eluted from beads in 200 uL of 4×LDS sample buffer in buffer 1 plus 5% BME. […]

[6] = tested on: PLX-4032 sensitive BRAFV600E melanoma cell lines (SK-MeI-28, A375, SK-MeI-5); assay: Proliferation of PLX-4032 sensitive melanoma lines with peptide; assay type: cell-based, human; settings: increasing doses of R8-myc-tagged WW peptide
Protocol: (A) Proliferation of PLX-4032 sensitive BRAFV600E melanoma cell lines (P1, SK-MeI-28; P2, A375; and P3, SK-MeI-5) at increasing doses of R8-myc-tagged WW peptide. (B) Proliferation assays of PLX-4032 resistant lines (R1, SK-MeI-28; R2, A375; and R3, SK-MeI-5) treated with 5 μM R8-myc-tagged SCR peptide and DMSO (control), 5 μM SCR peptide and 5 μM PLX-4032 (PLX-4032), or 5 μM R8-myc-tagged WW peptide and DMSO (5 μM WW).
Cell Viability Assay. Genetically modified adherent cancer cell lines were seeded in equivalent, low density cultures in duplicate to 24-well plates. 24 hours post-seeding, media was removed and replaced with 500 uL of a 5:1 mixture of cell media and cell titre blue reagent (Promega). Cultures were incubated with this mixture for 2 hours at 37° C. in the dark. Fluorescence ([…]) for 100 uL in triplicates of each sample was recorded. Incubation with cell titre blue reagent and fluorescent readings were repeated every two days for a total of twelve days. Values plotted correspond to readings taken while control samples are still growing exponentially.

ERK = assay: Protein expression analysis of phosphorylated and total ERK (immunoblot / immunohistochemistry); assay type: cell-based, human; settings: Ras-driven organotypic neoplasia, peptide 10 uM daily
Protocol: Protein Expression Analysis. Cells were lysed in 20 mM Tris (pH 7.5), 150 mM NaCl, 1 mM EDTA, and 1% NP40 supplemented with complete mini EDTA-free protease inhibitors (Roche) and phosphatase inhibitor cocktails I and II (Sigma-Aldrich). 5-20 ug of lysate were loaded per lane, subjected to 10-12% SDS-PAGE or 16% Tricine electrophoresus (Invitrogen NuPage), and subsequently transfer to PVDF membranes via semidry transfer. Primary antibody incubations were performed overnight at 4° C. Secondary antibody incubations were for 1 hour at room temperature. The following antibodies were used: rabbit anti-ERK1/2 (1:1000, Cell Signaling, 9201), rabbit anti-phosphorylated ERK1/2 (1:1000, Thr202/Tyr204, Cell Signaling, 9201), mouse anti-IQGAP1 (1:400, Upstate, 05-504), rabbit anti-RAS (1:500, Santa Cruz, sc-520), rabbit anti-IκBa (1:500, Cell Signaling, 9242), Rabbit anti-β-Galactosidase (1:1000, Cappel, 55976), rabbit anti myc (1:500, Abcam, ab9106), mouse anti-actin (1:10,000, Sigma, 5316), donkey anti-rabbit IgG conjugated to horseradish peroxidase (HRP)(1:20,000, Amersham Biosciences), and donkey anti-mouse IgG conjugated to horseradish peroxidase (HRP)(1:20,000, Amersham Biosciences).

[7] = tested on: Ras-driven organotypic human epidermal neoplasia; assay: Ras-driven organotypic human epidermal neoplasia (ER:H-RAS/CDK4, 4OHT) invasion; assay type: cell-based; settings: peptide 10 uM daily in media vs scrambled control peptide
Protocol: as §1, §2, §3
Exogenous delivery of the WW domain to human tissue. […] Briefly stromal primary human fibroblasts were seeded onto devitalized human dermis and subsequently elevated to a sterilized annular dermal support (ADS) tissue culture insert device (Ridky, supra). […]

[8] = tested on: PLX-4032 resistant BRAFV600E melanoma lines (SK-MeI-28, A375, SK-MeI-5); assay: Proliferation of PLX-4032 resistant melanoma lines; assay type: cell-based, human; settings: 5 μM R8-myc-tagged WW peptide and DMSO
[9] = drug daily in culture media: UO126 5 μM, SB0203580 2.6 μM, PD98059 18.7 μM, LY294002 5 μM
[10] = siRNA-nucleofected keratinocytes

Compound: N#CC(=C(/N)Sc1ccccc1N)/C(C#N)=C(/N)Sc1ccccc1N [UO126]
- normal tissue homeostasis [1]: without affecting normal tissue homeostasis

Compound: C[S+]([O-])c1ccc(-c2nc(-c3ccncc3)c(-c3ccc(F)cc3)[nH]2)cc1 (centres unmarked) [SB203580]
- neoplastic invasion [2, 9]: did not completely block invasion; also recorded: did not see effects

Compound: siIQGAP1.C: siRNA to 3′ UTR of IQGAP1, SEQ ID NO: 15/16 (chain 1 CAGCCAUCAUGACAUUUACCAUGAA; chain 2 UUCAUGGUAAAUGUCAUGAUGGCUG; chemistry not given here)
- durability of IQGAP1 knockdown (IQGAP1): more durable knockdown
- normal tissue phenotype [3]: phenotypically normal tissue
- neoplastic invasion [2, 10]: no invasion

Compound: siIQGAP1.A: siRNA to coding sequence of IQGAP1, SEQ ID NO: 11/12 (chain 1 GAACGUGGCUUAUGAGUACUU; chain 2 GUACUCAUAAGCCACGUUCUU; chemistry not given here)
- normal tissue phenotype [3]: phenotypically normal tissue
- neoplastic invasion [2, 10]: no invasion

Compound: siIQGAP1.B: siRNA to 3′ UTR of IQGAP1, SEQ ID NO: 13/14 (chain 1 CCUCUCGCUCUGAUGGGACAUUUGU; chain 2 ACAAAUGUCCCAUCAGAGCGAGAGG; chemistry not given here)
- durability of IQGAP1 knockdown (IQGAP1): more durable knockdown
- normal tissue phenotype [3]: phenotypically normal tissue
- neoplastic invasion [2, 10]: no invasion

Compound: WW peptide: 32 amino acid IQGAP1 WW domain peptide, myc-tagged, made cell penetrating by adding eight arginine residues (RRRRRRRREQKLISEEDLDNNSKWVKHWVKGGYYYYHNLETQEGGWDEPP)
- toxic effects to animals [4]: without adverse toxic effects to animals
- weight gain of mice [4]: no negative effects on mouse growth
- tumorigenesis / tumor growth ([4]; 19 mg/kg/day): diminishes tumorigenesis; also recorded: can inhibit tumorigenesis
- total Erk1/2 bound to endogenous IQGAP1 [5]: significantly decreased
- proliferation of BRAF mutant melanoma cells [6]: inhibited proliferation of BRAF mutant melanoma cells in a dose-dependent manner
- pErk1/2 levels (ERK): diminished pErk1/2 levels
- BMZ degradation [7]: abrogated BMZ degradation
- neoplastic invasion [7]: abolished neoplastic invasion; also recorded: inhibits neoplastic invasion
- growth of PLX-4032-resistant melanoma cells [8]: inhibited growth of PLX-4032-resistant melanoma cells similarly to PLX-4032-sensitive parental cells; also recorded: bypasses resistance to B-Raf inhibitors

Compound: COc1cccc(-c2cc(=O)c3ccccc3o2)c1N [PD098059]
- neoplastic invasion [2, 9]: did not have an abrogating effect on neoplastic invasion; also recorded: did not block invasion
